Assay results taken from publication PMC10794144, “A novel antibiotic class targeting the lipopolysaccharide transporter” (Nature, 2024).
Like-named read-outs stand apart in the source and are kept apart here.

How the values were obtained:
A. baumannii ACC01073 = test: Neutropaenic mouse lung infection (pneumonia) model; assay type: in vivo; details: for CFU/lungs, average / Log CFU/lungs, average (bacterial load): n = 6
Procedure: An intramuscular inoculation of a bacterial suspension of approximately 10^6 CFU per thigh was used to induce the infection. Treatment started 2 h after infection. […] Thigh bacterial burden was determined after 24 h of treatment. In the pneumonia model, an intratracheal inoculation of approximately 10^7 CFU per lung was used to induce the infection. Treatment started 2 h after infection. […] Lung bacterial burden was determined after 24 h treatment. Standard of care antibiotic was tested at a single dose in both infection models. GraphPad Prism 8 was used for graphical presentation and to analyse data.

A. baylyi LptB2FGC = test: LPS-release assay, proteoliposomes to LptA; assay type: biochemical, Acinetobacter baylyi
Procedure: Proteoliposomes were prepared as described previously. Aqueous E. coli polar lipid extract (Avanti Polar Lipids) (30 mg ml^−1) and aqueous LPS from E. coli EH100 (Ra mutant; Sigma-Aldrich) (2 mg ml^−1) were sonicated briefly for homogenization. A mixture of 20 mM Tris-HCl (pH 8.0), 150 mM NaCl, 7.5 mg ml^−1 E. coli polar lipids, 0.5 mg ml^−1 LPS and 0.25% DDM was prepared and kept on ice for 10 min. Purified LptB2FGC was added to a final concentration of 0.86 μM, and the mixture was left on ice for 20 min. The mixture was diluted 100-fold with cold 20 mM Tris-HCl (pH 8.0) and 150 mM NaCl and kept on ice for 20 min. The proteoliposomes were pelleted (300,000g, 2 h, 4 °C), resuspended in 20 mM Tris-HCl (pH 8.0) and 150 mM NaCl, diluted 100× and centrifuged (300,000g, 2 h, 4 °C). The pellets were resuspended in a mixture of 20 mM Tris-HCl (pH 8.0), 150 mM NaCl and 10% glycerol (250 μl per 100 μl of the original predilution solution), homogenized by sonication, flash-frozen and stored at −80 °C until use.
The levels of release of LPS from proteoliposomes to LptA were measured as previously described. Assays used 60% proteoliposomes (by volume) in a solution containing 50 mM Tris-HCl (pH 8.0), 500 mM NaCl, 10% glycerol and 2 µM LptA^I36pBPA. Reaction mixtures were incubated with drug for 10 min at room temperature, as applicable. […]

## CN1C(=O)[C@H](CCCCN)NC(=O)[C@H](CCCN)NCc2cccnc2Sc2cccc(-c3ccc(C(=O)O)cc3)c2CNC(=O)[C@@H]1Cc1c[nH]c2ccccc12 [zosurabalpin]
A. baumannii ACC01073; 6 mg/kg/day s.c. q6h, 24 h
  ΔLog CFU/lungs vs A/0h: 1.37
  CFU/lungs, average: 1.26E+09
  Log CFU/lungs, average (bacterial load): 9.06
A. baumannii ACC01073; 20 mg/kg/day q6h
  ΔLog CFU/lungs vs A/0h: 1.47
  CFU/lungs, average: 1.49E+09
  Log CFU/lungs, average (bacterial load): 9.16
A. baumannii ACC01073; 60 mg/kg/day q6h
  ΔLog CFU/lungs vs A/0h: 1.13
  CFU/lungs, average: 8.46E+08
  Log CFU/lungs, average (bacterial load): 8.82
A. baumannii ACC01073; 100 mg/kg/day q6h
  ΔLog CFU/lungs vs A/0h: -0.05
  CFU/lungs, average: 1.38E+08
  Log CFU/lungs, average (bacterial load): 7.64
A. baumannii ACC01073; 160 mg/kg/day q6h
  ΔLog CFU/lungs vs A/0h: -1.08
  CFU/lungs, average: 9.40E+06
  Log CFU/lungs, average (bacterial load): 6.61
A. baumannii ACC01073; 240 mg/kg/day q6h
  ΔLog CFU/lungs vs A/0h: -2.52
  CFU/lungs, average: 4.14E+05
  Log CFU/lungs, average (bacterial load): 5.17
A. baumannii ACC01073; 360 mg per kg per day
  Reduction in CFUs in lungs: > 5 log
A. baumannii ACC01073; 360 mg/kg/day q6h
  ΔLog CFU/lungs vs A/0h: -4.81
  CFU/lungs, average: 9.88E+02
  Log CFU/lungs, average (bacterial load): 2.88
A. baylyi LptB2FGC; complexes with LptF E249K or I317N
  LPS transport: did not inhibit LPS transport
A. baylyi LptB2FGC; wild-type LptB2FGC proteoliposomes, biological triplicate
  LPS extraction to LptA: blocked LPS extraction at concentrations comparable to growth inhibitory concentrations
A. baumannii; A. baumannii ATCC 17978, wild type (parental strain)
  MIC_WT: 0.06 µM
A. baumannii; A. baumannii ATCC 19606, wild type (parental strain)
  MIC_WT: 0.25 µM
A. baumannii; A. baumannii ROB08705, wild type (parental strain)
  MIC_WT: 0.13 µM
A. baumannii; A. baumannii ROB08706, wild type (parental strain)
  MIC_WT: 1.0 µM
A. baumannii; ATCC 17978 clone 1D1, run AB17978_3280_HS, evolved in HS/MHB
  MIC_value: 128 µM
A. baumannii; ATCC 17978 clone 1D3, run AB17978_3280_HS, evolved in HS/MHB
  MIC_value: 128 µM
A. baumannii; ATCC 17978 clone 1E3, run AB17978_3280_MHB, evolved in MHB
  MIC_value: 16 µM
A. baumannii; ATCC 17978 clone 1F1, run AB17978_3280_MHB, evolved in MHB
  MIC_value: >128 µM
A. baumannii; ATCC 17978 clone 2C1, run AB17978_3280_HS, evolved in HS/MHB
  MIC_value: 16 µM
A. baumannii; ATCC 17978 clone 2C1, run AB17978_3280_MHB, evolved in MHB
  MIC_value: 2 µM
A. baumannii; ATCC 17978 clone 2C2, run AB17978_3280_HS, evolved in HS/MHB
  MIC_value: 8 µM
A. baumannii; ATCC 17978 clone 2C3, run AB17978_3280_HS, evolved in HS/MHB
  MIC_value: 4 µM
A. baumannii; ATCC 17978 clone 2C4, run AB17978_3280_MHB, evolved in MHB
  MIC_value: 8 µM
A. baumannii; ATCC 17978 clone 2D2, run AB17978_3280_MHB, evolved in MHB
  MIC_value: 8 µM
A. baumannii; ATCC 17978 clone 2D3, run AB17978_3280_HS, evolved in HS/MHB
  MIC_value: 32 µM
A. baumannii; ATCC 17978 clone 3D1, run AB17978_3280_HS, evolved in HS/MHB
  MIC_value: 32 µM
A. baumannii; ATCC 17978 clone 4D1, run AB17978_3280_MHB, evolved in MHB
  MIC_value: 64 µM
A. baumannii; ATCC 17978 clone 5B1, run AB17978_3280_HS, evolved in HS/MHB
  MIC_value: 1 µM
A. baumannii; ATCC 17978 clone 5C1, run AB17978_3280_HS, evolved in HS/MHB
  MIC_value: 64 µM
A. baumannii; ATCC 17978 clone 5E1, run AB17978_3280_MHB, evolved in MHB
  MIC_value: >32 µM
A. baumannii; ATCC 17978 clone 6E1, run AB17978_3280_HS, evolved in HS/MHB
  MIC_value: 32 µM
A. baumannii; ATCC 17978 clone 6E1, run AB17978_3280_MHB, evolved in MHB
  MIC_value: 4 µM
A. baumannii; ATCC 17978 clone 6E2, run AB17978_3280_HS, evolved in HS/MHB
  MIC_value: 16 µM
A. baumannii; ATCC 17978 clone 6E3, run AB17978_3280_HS, evolved in HS/MHB
  MIC_value: 32 µM
A. baumannii; ATCC 17978 clone 6E4, run AB17978_3280_HS, evolved in HS/MHB
  MIC_value: 32 µM
A. baumannii; ATCC 17978 clone 6E4, run AB17978_3280_MHB, evolved in MHB
  MIC_value: 8 µM
A. baumannii; ATCC 17978 clone 6E5, run AB17978_3280_HS, evolved in HS/MHB
  MIC_value: 32 µM
A. baumannii; ATCC 17978 clone 6E6, run AB17978_3280_HS, evolved in HS/MHB
  MIC_value: 8 µM
A. baumannii; ATCC 17978 clone 6E9, run AB17978_3280_HS, evolved in HS/MHB
  MIC_value: 8 µM
A. baumannii; ATCC 19606 clone 1C2, run AB19606_3280_HS, evolved in HS_MHB
  MIC_value: 8 µM
A. baumannii; ATCC 19606 clone 1C3, run AB19606_3280_HS, evolved in HS_MHB
  MIC_value: 16 µM
